Assay results: patent US6919362B2, “Heterocyclic derivatives, preparation method and pharmaceutical compositions containing same” (Les Laboratoires Servier, priority 2000, dated 2005)
Blank lines part the entries; values can stand above or below the compound they belong to.

Legend:
ob/ob mouse = assay: Antidiabetic and hypolipidaemic effect in the ob/ob mouse; type: in vivo; conditions: for reduction of glycaemia: glycaemia 24 hours after the final administration
Text: Mutations in laboratory animals and also different sensitivities to dietary regimens have allowed the development of animal models having non-insulin dependent diabetes and hyperlipidaemia associated with obesity and with resistance to insulin.
Genetic mice models (ob/ob) (Diabetes, 1982, 31 (1), 1-6) and Zucker (fa/fa) rats have been developed by various laboratories in order to understand the physiopathology of those diseases and test the effectiveness of new antidiabetic compounds (Diabetes, 1983, 32, 830-838).
The 10-week-old female ob/ob mouse (Harlan) is used for the in vivo tests. The animals are kept in a light-darkness cycle of 12 hours at 25° C. The mouse has a basal hyperglycaemia of 2 g/l. The animals are randomly selected in terms of their glycaemia to form groups of six. The compounds tested by the intraperitoneal route are dissolved in a mixture of dimethyl sulphoxide (10%) and solutol (15%) to be administered at 10 mg/kg in a volume of 2.5 ml/kg twice per day for four days. By the per os route, the compounds are tested at 30 mg/kg administered in a volume of 2.5 ml/kg of 1%, HEC twice per day for four days. The control groups receive the solvents under the same conditions as the treated groups. The activity of the products is evaluated by measuring glycaemia 24 hours after the final administration and by measuring body weight daily.

Structure (SMILES): COC(=O)C(Cc1ccc(OCCn2c(=O)sc3cc(C(=O)c4ccccc4)ccc32)cc1)C(=O)OC [Example 18, Dimethyl 2-{4-[2-(6-benzoyl-2-oxo-1,3-benzothiazol-3(2H)-yl)-ethoxy]benzyl}malonate]
reduction of glycaemia (ob/ob mouse; 10 mg/kg i.p. twice per day for four days): 45%
reduction of glycaemia (ob/ob mouse; 30 mg/kg per os twice per day for four days): 43%

melting point: 186 to 190 °C
Structure (SMILES): COC(=O)C(=Cc1ccc(OCCn2c(=O)sc3cc(NC(=O)c4ccccc4)ccc32)cc1)C(=O)OC [Example 76, Dimethyl 2-{4-[2-(6-(benzoylamino)-2-oxo-1,3-benzothiazol-3(2H)-yl)ethoxy]benzylidene}malonate]

melting point: 102 to 105 °C
Structure (SMILES): COC(=O)C(=Cc1ccc(OCCn2c(=O)sc3cc(C(=O)Nc4ccccc4)ccc32)cc1)C(=O)OC [Example 84, Dimethyl 2-{4-[2-(6-(anilinocarbonyl)-2-oxo-1,3-benzothiazol-3(2H)-yl)ethoxy]benzylidene}malonate]

Structure (SMILES): CN(CCOc1ccc(CC2SC(=O)NC2=O)cc1)c1ccccn1 (centres unmarked) [rosiglitazone, reference compound]
variation in body weight (ob/ob mouse; ob/ob mouse, in four days, body weight measured daily): +4%
